The record followed here is US11028095B2, “Spiro-lactam and bis-spiro-lactam NMDA receptor modulators and uses thereof” (Aptinyx Inc., priority 2016, dated 2021).

The assay has as its system positive (hedonic) 50-kHz ultrasonic vocalizations (USVs). The assay is described as follows: Positive Emotional Learning (PEL) test. The assay is classed as in vivo. The following applies: rat, PO, dose 0.001-1 mg/kg, one hour after administration. The gist of the method: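 Rats received test compound or vehicle (0.5% carboxymethyl cellulose in saline) 1 h before 3 min of experimenter-delivered rough-and-tumble play in alternating 15 s play and no-stimulation blocks. Frequency-modulated 50-kHz USVs during no-stimulation (CS) periods were counted; animals not habituated beforehand.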

Structures are written as SMILES.

As to `CC(C)CN1[C@@]2(CC[C@@]13CNC3=O)CNC2=O` [Compound AD, 5-isobutyl-2,5,8-triazadispiro[3.1.36.24]undecane-1,7-dione], the “Max Effect (mean number of 50 kHz USVs per 15 seconds)” value was “** (**: 11-16.9)”.
